This note sets out measurements from patent publication US20040038950A1, “Pharmaceutical composition for treating IL-1 related diseases or disorders” (priority 2002, published 2004).

For test [1], the system named is human chondrocyte. As to the kind of experiment: Cell proliferation, [3H]thymidine assay in chondrocyte alginate bead culture. Type of test: cell-based. The settings on record: 10-100 μM DHEA. The procedure:
(§1) Chondrocytes were isolated from the knee joint of patient undergoing a knee replacement due to osteoarthritis. Cartilage was digested with 0.2% protease Type XIV (Sigma) for 1 hour, followed by 3-hour incubation with 0.2% collagenase Type IA (Sigma) at 37° C. Following the incubation, the undigested cartilage fragments were removed using a 70 μm Nylon sieve. Chondrocytes were washed with DPBS and maintained in monolayer culture for 7 days in Dulbecco's modified Eagle's medium (DMEM; Life Technologies Inc.) which contained 10% fetal bovine serum (FBS; Life Technologies), 100 units/ml penicillin-streptomycin (Life Technologies) and 25 μg/ml L-ascorbic acid (Sigma). All experiments were performed with primary or first passage cells. The preparation of chondrocytes in alginate beads was carried out with 4×10^6 cells per 1 ml of alginate. […]
For cell proliferation, [^3H]thymidine assay was performed on a 96-well plate (Nunc) with one alginate bead per well. […] After collecting the cells using a cell harvester (Wallac), [^3H]thymidine uptake was quantitated by measuring β emission on a β-counter (Wallac). […] The ^35SO4-labeled proteoglycan content was measured by a liquid scintillation counter (Wallac). The total cellular DNA was determined by Indole assay.

Test [2] relates to (IL-1β)-induced MMP-1 mRNA. In words: (IL-1β)-induced MMP-1 mRNA expression in chondrocytes, RT-PCR. Particulars: 72 hr. It counts as cell-based, human. The procedure: Sixteen hours prior to a treatment, the complete culture medium was replaced with a serum-free medium. Chondrocyte alginate bead cultures were then treated with IL-1β ([…], (Calbiochem) and DHEA (0, 10, 50 or 100 μM) for 3 days.
Total RNA from chondrocytes was extracted using RNeasy Mini Kit (QIAGEN). Reverse transcription from 1 μg of total RNA was conducted using First Strand cDNA Synthesis Kit (MBI Fermentas) according to manufacturer's recommendation with random hexamers. The resulting cDNA was then amplified by polymerase chain reaction using AccuPower PCR Premix (Bioneer, Korea) in a final volume of 20 μl using three thermocycler temperatures (30 sec at […], 30 sec at 60° C., and 30 sec at […]). All reactions were determined to be in the linear range of amplification with the cycle number ranging from 14 to 30. The PCR products were analyzed by separation on a 2% agarose gel followed by ethidium bromide staining. Following electrophoresis, photographs were taken and analyzed using a densitometric program (TINA; Raytest Isotopenmeβgerate, Germany). Integrated density values for the genes in question were then normalized to the glyceraldehyde-3-phosphate dehydrogenase (GAPDH) values for a semiquantitative assessment. After normalizing with respect to GAPDH, percentage increase or decrease was determined. Each experiment was repeated at least three times. […]

Test [3] concerns MMP-3. In words: Western blot of MMP-3 in chondrocyte lysates. The settings on record: 0, 10 or 100 μ DHEA, three days. Type of test: cell-based, human. The procedure:
as §1, with “alginate. Alginate cultures were maintained for 7 days at 37° C., 5% CO2 and 95% humidity and incubated with various concentrations of DHEA (0, 10, 50 or 100 μM) for a varing period of time. DHEA was purchased from Sigma and used after dissolving either in ethanol or dimethyl sulfoxide (DMSO).” for “alginate.”
(§2) To investigate the effect of DHEA on the protein concentration, Western blot analysis was performed. […] Protein concentration of the supernatant was determined by Bio-Rad protein assay (Bio-Rad, USA) using bovine serum albumin (BSA) as a standard. […]

In test [4] the test system is TIMP-1. As to the kind of experiment: Western blot of TIMP-1 in chondrocyte lysates. It counts as cell-based, human. Particulars: 0, 10 or 100 μ DHEA, three days. On the procedure: as §1, with “alginate. Alginate cultures were maintained for 7 days at 37° C., 5% CO2 and 95% humidity and incubated with various concentrations of DHEA (0, 10, 50 or 100 μM) for a varing period of time. DHEA was purchased from Sigma and used after dissolving either in ethanol or dimethyl sulfoxide (DMSO).” for “alginate.”
as §2

Test [5] concerns MMP-3 mRNA. In words: RT-PCR of MMP-3 mRNA in chondrocytes. Type of test: cell-based, human. The procedure:
Chondrocytes were isolated from the knee joint of patient undergoing a knee replacement due to osteoarthritis. Cartilage was digested with 0.2% protease Type XIV (Sigma) for 1 hour, followed by 3-hour incubation with 0.2% collagenase Type IA (Sigma) at 37° C. Following the incubation, the undigested cartilage fragments were removed using a 70 μm Nylon sieve. Chondrocytes were washed with DPBS and maintained in monolayer culture for 7 days in Dulbecco's modified Eagle's medium (DMEM; Life Technologies Inc.) which contained 10% fetal bovine serum (FBS; Life Technologies), 100 units/ml penicillin-streptomycin (Life Technologies) and 25 μg/ml L-ascorbic acid (Sigma). All experiments were performed with primary or first passage cells. The preparation of chondrocytes in alginate beads was carried out with 4×10^6 cells per 1 ml of alginate. Alginate cultures were maintained for 7 days at 37° C., 5% CO2 and 95% humidity and incubated with various concentrations of DHEA (0, 10, 50 or 100 μM) for a varing period of time. DHEA was purchased from Sigma and used after dissolving either in ethanol or dimethyl sulfoxide (DMSO). After a desired incubation period, cells were harvested by solubilizing the alginate beads in citrate buffer (55 mM sodium citrate, 0.15 M NaCl, pH 7.0) for 10 min at 37° C. and by centrifugation (300 g, 5 min).
Total RNA from chondrocytes was extracted using RNeasy Mini Kit (QIAGEN). Reverse transcription from 1 μg of total RNA was conducted using First Strand cDNA Synthesis Kit (MBI Fermentas) according to manufacturer's recommendation with random hexamers. […] All reactions were determined to be in the linear range of amplification with the cycle number ranging from 14 to 30. The PCR products were analyzed by separation on a 2% agarose gel followed by ethidium bromide staining. Following electrophoresis, photographs were taken and analyzed using a densitometric program (TINA; Raytest Isotopenmeβgerate, Germany). […] After normalizing with respect to GAPDH, percentage increase or decrease was determined. […]

Regarding `C[C@]12CC[C@H](O)CC1=CC[C@@H]1[C@@H]2CC[C@]2(C)C(=O)CC[C@@H]12` [DHEA, dehyroepiandrosterone], in test [1] (after day 5), the “effect on cell proliferation” value is listed as “insignificant”. Further, the cell proliferation result in test [1] (as early as day 3 of culture) was “slightly reduced”. Moreover, the “(IL-1β)-induced up-regulation of MMP-1 mRNA, inhibition” value worked out at 74% in test [2] (10 μM DHEA with IL-1β) and 53% in test [2] (50 μM DHEA with IL-1β). For the same compound, in test [3], the “MMP-3 protein level (Western blot)” value is “did not change”. Further, the “translational level of mature TIMP-1 (Western blot)” value in test [4] is given as “increased with increasing concentration of DHEA”. Besides, the “MMP-3 mRNA expression, decreased by” value in test [5] (100 μM, after 24 hr of culture) came out at 73%. Also, the “inhibitory activity of DHEA on the MMP-3, increase by” value in test [5] (100 μM, after 72 hr) stood at 131%. In test [5] (10-100 μM, 72 hours, not dose-dependent), the “MMP-3 production, inhibition” value was 82-93%.
